Results taken from ChEMBL document CHEMBL3351580, “Pyrano-isochromanones as IL-6 inhibitors: synthesis, in vitro and in vivo antiarthritic activity” (J Med Chem, 2014).
Calls of active or inactive are those of the source. The calls are words filed in the database; no cut-off is given here.

Assays:
Mus musculus [1] = experiment: Antiarthritic activity in DBA/1J mouse collagen-induced arthritis model assessed as reduction in TNFalpha level at 5 mg/kg, po administered once daily for 49 days starting from onset of disease and measured after 3 to 49 days of disease onset by ELISA method; assay type: functional, organism-based; set-up: dose 5 mg/kg
Mus musculus [2] = experiment: Antiarthritic activity in DBA/1J mouse collagen-induced arthritis model assessed as reduction in IL6 level at 5 mg/kg, po administered once daily for 49 days starting from onset of disease and measured after 3 to 49 days of disease onset by ELISA method; assay type: functional, organism-based; set-up: dose 5 mg/kg
Mus musculus [3] = experiment: Antiarthritic activity in DBA/1J mouse collagen-induced arthritis model assessed as reduction in paw swelling at 5 mg/kg, po administered once daily for 49 days starting from onset of disease; assay type: functional; settings: 1176 h
[4] = Inhibition of concanavalin A-induced cell proliferation of T cells (unknown origin) at 10 uM after 72 hrs by MTT assay; assay type: functional
Mus musculus [5] = experiment: Antiarthritic activity in DBA/1J mouse collagen-induced arthritis model assessed as reduction in IL-1beta level at 5 mg/kg, po administered once daily for 49 days starting from onset of disease and measured after 3 to 49 days of disease onset by ELISA method; assay type: functional, organism-based; set-up: dose 5 mg/kg
THP-1 [6] = experiment: Inhibition of LPS-induced TNFalpha production in human THP1 cells after 24 hrs; assay type: functional, cell-based; settings: THP-1, 24 h
B-cell = experiment: Inhibition of LPS-induced cell proliferation of B cells (unknown origin) at 10 uM after 72 hrs by MTT assay; assay type: functional
Mus musculus [7] = experiment: Antiarthritic activity in DBA/1J mouse collagen-induced arthritis model assessed as reduction in anticollagen antibody IgG2a level at 5 mg/kg, po administered once daily for 49 days starting from onset of disease and measured after 14 days of disease onset by ELISA method; assay type: functional, organism-based; set-up: dose 5 mg/kg
THP-1 [8] = experiment: Inhibition of LPS-induced IL6 production in human THP1 cells after 24 hrs; assay type: functional, cell-based; settings: THP-1, 24 h
Mus musculus [9] = experiment: Antiarthritic activity in DBA/1J mouse collagen-induced arthritis model assessed as reduction in anticollagen antibody IgG1 level at 5 mg/kg, po administered once daily for 49 days starting from onset of disease and measured after 49 days of disease onset by ELISA method; assay type: functional, organism-based; set-up: dose 5 mg/kg
Mus musculus [10] = experiment: Antiarthritic activity in DBA/1J mouse collagen-induced arthritis model assessed as reduction in anticollagen antibody IgG2a level at 5 mg/kg, po administered once daily for 49 days starting from onset of disease and measured after 49 days of disease onset by ELISA method; assay type: functional, organism-based; set-up: dose 5 mg/kg
Mus musculus [11] = experiment: Antiarthritic activity in DBA/1J mouse collagen-induced arthritis model assessed as reduction in anticollagen antibody IgG1 level at 5 mg/kg, po administered once daily for 49 days starting from onset of disease and measured after 14 days of disease onset by ELISA method; assay type: functional, organism-based; set-up: dose 5 mg/kg

SMILES: C[C@H]1C[C@H]2[C@@H]3CCC4=CC(=O)C=C[C@]4(C)[C@@]3(F)[C@@H](O)C[C@]2(C)[C@@]1(O)C(=O)CO [BETAMETHASONE]
- inhibition (Mus musculus [1]): Active
- inhibition (Mus musculus [2]): Active
- inhibition in vivo at 5 mg/kg (Mus musculus [3]): 46%
- inhibition at 10 µM [4]: 42.6%
- inhibition (Mus musculus [5]): Active
- IC50 (THP-1 [6]): 13 nM
- inhibition at 10 µM (B-cell): 28.1%
- inhibition (Mus musculus [7]): Active
- IC50 (THP-1 [8]): 22 nM
- inhibition (Mus musculus [9]): Active
- inhibition (Mus musculus [10]): Active
- inhibition (Mus musculus [11]): Active
